The text below walks through data of patent publication US20070191350A1, “Combinations comprising alpha-2-delta ligands” (Pifizer Inc., priority 2004, published 2007).

The nature of this data set: Plasma concentration (Cmax) of gabapentin in the rat.

Take `NCC1(CC(=O)O)CCCCC1` [gabapentin, 1-(aminomethyl)-cyclohexylacetic acid]: the Cmax (usually the peak of the concentration-time curve) was 520 to 10500 ng/mL.
